Legend:
human recombinant HDAC1 = biological target: T1, human recombinant HDAC1 (Homo sapiens, UniProt Q13547); assay: HDAC1 enzyme activity inhibition assay (HDAC Fluorimetric Drug Discovery Kit); format: biochemical; conditions: 30° C. 60 minutes
T1 construct: purchased Enzo Life Science BML-SE456
Method in brief: (§1)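 Human recombinant HDAC1 or HDAC6 (0.3 μg) reacted with 10 μM Fluor de Lys-SIRT1 substrate and 5-fold compound dilutions for 60 min at 30 °C. Developer II added for 30 min, fluorescence read at Ex 360/Em 460; IC50 calculated from the readings.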

human recombinant HDAC6 = biological target: T2, human recombinant HDAC6 (Homo sapiens, UniProt Q9UBN7); assay: HDAC6 enzyme activity inhibition assay (HDAC Fluorimetric Drug Discovery Kit); format: biochemical; conditions: for HDAC6 selectivity (fold): HDAC6 over HDAC1; for IC50: human recombinant HDAC6, same protocol as HDAC1, read-out: HDAC6
T2 construct: purchased Calbiochem 382180
T2 sequence (Q9UBN7 1-1215): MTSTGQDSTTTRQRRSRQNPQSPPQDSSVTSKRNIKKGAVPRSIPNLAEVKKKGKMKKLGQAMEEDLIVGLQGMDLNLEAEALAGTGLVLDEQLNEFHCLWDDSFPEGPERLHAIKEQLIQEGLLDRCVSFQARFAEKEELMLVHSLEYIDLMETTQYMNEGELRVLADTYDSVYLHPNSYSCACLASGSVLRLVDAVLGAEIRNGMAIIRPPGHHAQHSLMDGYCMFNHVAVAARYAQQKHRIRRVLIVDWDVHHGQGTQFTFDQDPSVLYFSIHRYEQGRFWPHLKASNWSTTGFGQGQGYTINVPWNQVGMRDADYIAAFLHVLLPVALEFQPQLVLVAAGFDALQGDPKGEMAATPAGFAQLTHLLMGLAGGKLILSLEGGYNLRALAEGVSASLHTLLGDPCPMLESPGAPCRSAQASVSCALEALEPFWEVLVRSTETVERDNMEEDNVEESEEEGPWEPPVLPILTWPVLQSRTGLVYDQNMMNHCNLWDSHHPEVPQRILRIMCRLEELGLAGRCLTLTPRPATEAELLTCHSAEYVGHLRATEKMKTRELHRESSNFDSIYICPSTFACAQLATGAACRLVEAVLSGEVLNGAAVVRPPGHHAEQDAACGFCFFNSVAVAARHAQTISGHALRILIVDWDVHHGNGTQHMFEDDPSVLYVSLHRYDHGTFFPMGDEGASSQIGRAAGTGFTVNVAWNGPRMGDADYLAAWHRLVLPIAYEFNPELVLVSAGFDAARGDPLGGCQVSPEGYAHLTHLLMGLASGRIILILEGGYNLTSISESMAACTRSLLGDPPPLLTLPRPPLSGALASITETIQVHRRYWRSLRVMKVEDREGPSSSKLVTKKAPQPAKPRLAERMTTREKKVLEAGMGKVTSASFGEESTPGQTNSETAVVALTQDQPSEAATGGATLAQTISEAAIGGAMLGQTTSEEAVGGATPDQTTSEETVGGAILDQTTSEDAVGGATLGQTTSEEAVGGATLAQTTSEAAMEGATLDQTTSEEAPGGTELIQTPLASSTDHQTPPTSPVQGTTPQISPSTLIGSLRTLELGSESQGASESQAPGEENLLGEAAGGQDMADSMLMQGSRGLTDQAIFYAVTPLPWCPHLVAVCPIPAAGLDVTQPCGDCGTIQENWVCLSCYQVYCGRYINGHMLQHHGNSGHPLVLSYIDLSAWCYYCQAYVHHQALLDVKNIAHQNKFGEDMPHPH
Method in brief: as §1

[1] = human recombinant HDAC1, Fluor de Lys substrate 10 μM

T1 sequence (Q13547 whole entry): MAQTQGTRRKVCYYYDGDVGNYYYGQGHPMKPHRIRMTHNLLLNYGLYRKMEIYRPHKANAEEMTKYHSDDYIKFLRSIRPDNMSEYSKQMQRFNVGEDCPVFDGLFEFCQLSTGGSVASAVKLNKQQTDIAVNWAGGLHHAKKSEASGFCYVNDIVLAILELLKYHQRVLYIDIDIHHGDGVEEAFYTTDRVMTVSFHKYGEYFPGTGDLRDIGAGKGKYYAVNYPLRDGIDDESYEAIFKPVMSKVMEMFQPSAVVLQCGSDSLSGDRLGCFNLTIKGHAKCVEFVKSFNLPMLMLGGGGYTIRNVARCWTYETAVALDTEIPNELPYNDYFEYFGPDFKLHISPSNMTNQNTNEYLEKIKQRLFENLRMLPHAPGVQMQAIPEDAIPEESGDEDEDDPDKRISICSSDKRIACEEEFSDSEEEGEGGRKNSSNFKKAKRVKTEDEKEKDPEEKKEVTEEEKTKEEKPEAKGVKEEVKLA

SMILES | IC50 (human recombinant HDAC1; [1]) | HDAC6 selectivity (fold) (human recombinant HDAC6) | IC50 (human recombinant HDAC6) | IC50 (human recombinant HDAC1; human recombinant HDAC1, Fluor de Lys substrate)
O=C(N1CCS(=O)(=O)CC1)N(Cc1ccc(-c2nnc(C(F)(F)F)o2)cc1F)c1ccc(-c2ccncc2)cc1 [Compound 21519, N-(2-fluoro-4-(5-(trifluoromethyl)-1,3,4-oxadiazol-2-yl)benzyl)-N-(4-(pyridin-4-yl)phenyl)thiomorpholine-4-carboxamide 1,1-dioxide] | 2650 nM | 20 fold | 131 nM | –
CCN1CCN(C(=O)N(Cc2ccc(-c3nnc(C(F)F)o3)cc2)c2cccc(Cl)c2)CC1 [Compound 21877, N-(3-Chlorophenyl)-N-(4-(5-(difluoromethyl)-1,3,4-oxadiazol-2-yl)benzyl)-4-ethylpiperazine-1-carboxamide] | 65000 nM | 1424 fold | 46 nM | –
CCN1CCN(C(=O)N(Cc2ccc(-c3nnc(C(F)(F)F)o3)cc2)c2cccc(Cl)c2)CC1 [Compound 21860, N-(3-Chlorophenyl)-4-ethyl-N-(4-(5-(trifluoromethyl)-1,3,4-oxadiazol-2-yl)benzyl)piperazine-1-carboxamide] | 18000 nM | 82 fold | 220 nM | –
CN(C)[C@@H]1CCN(C(=O)N(Cc2ccc(-c3nnc(C(F)F)o3)cc2F)c2ccc(F)cc2Cl)C1 [Compound 21652, (R)—N-(2-chloro-4-fluorophenyl)-N-(4-(5-(difluoromethyl)-1,3,4-oxadiazol-2-yl)-2-fluorobenzyl)-3-(dimethylamino)pyrrolidine-1-carboxamide] | 36500 nM | 787 fold | 46 nM | –
O=C(N1CCS(=O)(=O)CC1)N(Cc1ccc(-c2nnc(C(F)F)o2)cc1F)c1ccc(CN2CCN(C3COC3)CC2)cc1 [Compound 21896, N-(4-(5-(difluoromethyl)-1,3,4-oxadiazol-2-yl)-2-fluorobenzyl)-N-(4-((4-(oxetan-3-yl)piperazin-1-yl)methyl)phenyl)thiomorpholine-4-carboxamide 1,1-dioxide] | 28500 nM | 82 fold | 346 nM | –
CCN1CCN(C(=O)N(Cc2ccc(-c3nnc(C(F)(F)F)o3)cn2)c2ccc(OC)cc2)CC1 [Compound 21876, 4-Ethyl-N-(4-methoxyphenyl)-N-((5-(5-(trifluoromethyl)-1,3,4-oxadiazol-2-yl)pyridin-2-yl)methyl)piperazine-1-carboxamide] | 11700 nM | 46 fold | 255 nM | –
Cn1ncc2ccc(-c3cccc(N(Cc4ccc(-c5nnc(C(F)(F)F)o5)cc4)C(=O)N4CCS(=O)(=O)CC4)c3)cc21 [Compound 21438, N-(3-(1-methyl-1H-indazol-6-yl)phenyl)-N-(4-(5-(trifluoromethyl)-1,3,4-oxadiazol-2-yl)benzyl)thiomorpholine-4-carboxamide 1,1-dioxide] | 2700 nM | 4 fold | 750 nM | –
O=C(N1CCS(=O)(=O)CC1)N(Cc1ccc(-c2nnc(C(F)F)o2)cn1)c1ccc(Cl)cc1 [Compound 21831, N-(4-chlorophenyl)-N-((5-(5-(difluoromethyl)-1,3,4-oxadiazol-2-yl)pyridin-2-yl)methyl)thiomorpholine-4-carboxamide 1,1-dioxide] | 64400 nM | 1538 fold | 42 nM | –
COc1cccc(N(Cc2ccc(-c3nnc(C(F)F)o3)cc2F)C(=O)N2CCN(C3COC3)CC2)c1 [Compound 21949, N-(4-(5-(Difluoromethyl)-1,3,4-oxadiazol-2-yl)-2-fluorobenzyl)-N-(3-methoxyphenyl)-4-(oxetan-3-yl)piperazine-1-carboxamide] | – | 383 fold | 126 nM | 48300 nM
CCN1CCN(C(=O)N(Cc2ccc(-c3nnc(C(F)(F)F)o3)cc2F)c2ccc(F)c(Cl)c2)CC1 [Compound 21592, N-(3-chloro-4-fluorophenyl)-4-ethyl-N-(2-fluoro-4-(5-(trifluoromethyl)-1,3,4-oxadiazol-2-yl)benzyl)piperazine-1-carboxamide] | 8280 nM | 100 fold | 100 nM | –
CCN1CCN(C(=O)N(Cc2ccc(-c3nnc(C(F)(F)F)o3)cc2)c2ccc(OC)cc2)CC1 [Compound 21874, 4-Ethyl-N-(4-methoxyphenyl)-N-(4-(5-(trifluoromethyl)-1,3,4-oxadiazol-2-yl)benzyl)piperazine-1-carboxamide] | 6170 nM | 20 fold | 308 nM | –
O=C(N1CCC(F)(F)C1)N(Cc1ccc(-c2nnc(C(F)F)o2)cc1F)c1ccc(F)c(Cl)c1 [Compound 21667, N-(3-chloro-4-fluorophenyl)-N-(4-(5-(difluoromethyl)-1,3,4-oxadiazol-2-yl)-2-fluorobenzyl)-3,3-difluoropyrrolidine-1-carboxamide] | 20100 nM | 485 fold | 41 nM | –
CCN1CCN(C(=O)N(Cc2ccc(-c3nnc(C(F)(F)F)o3)cc2F)c2ccc(OC)cc2)CC1 [Compound 21875, 4-Ethyl-N-(2-fluoro-4-(5-(trifluoromethyl)-1,3,4-oxadiazol-2-yl)benzyl)-N-(4-methoxyphenyl)piperazine-1-carboxamide] | 9000 nM | 23 fold | 386 nM | –
O=C(N1CCOCC1)N(Cc1ccc(-c2nnc(C(F)(F)F)o2)cc1F)c1ccc(Cl)cc1 [Compound 21850, N-(4-chlorophenyl)-N-(2-fluoro-4-(5-(trifluoromethyl)-1,3,4-oxadiazol-2-yl)benzyl)morpholine-4-carboxamide] | 68600 nM | 157 fold | 436 nM | –

Second part, the compound after the results:

IC50 (human recombinant HDAC1; [1]) | HDAC6 selectivity (fold) (human recombinant HDAC6) | IC50 (human recombinant HDAC6) | IC50 (human recombinant HDAC1; human recombinant HDAC1, Fluor de Lys substrate) | SMILES
19100 nM | 917 fold | 21 nM | – | O=C(N1CC[C@H](F)C1)N(Cc1ccc(-c2nnc(C(F)F)o2)cc1F)c1ccc(F)c(Cl)c1 [Compound 21665, (S)—N-(3-chloro-4-fluorophenyl)-N-(4-(5-(difluoromethyl)-1,3,4-oxadiazol-2-yl)-2-fluorobenzyl)-3-fluoropyrrolidine-1-carboxamide]
62300 nM | 1919 fold | 32 nM | – | O=C(N1CCOCC1)N(Cc1ccc(-c2nnc(C(F)F)o2)cc1F)c1cccc(F)c1 [Compound 21845, N-(4-(5-(difluoromethyl)-1,3,4-oxadiazol-2-yl)-2-fluorobenzyl)-N-(3-fluorophenyl)morpholine-4-carboxamide]
21500 nM | 522 fold | 41 nM | – | CCN1CCN(C(=O)N(Cc2ccc(-c3nnc(C(F)F)o3)cc2F)c2cccc(Cl)c2)CC1 [Compound 21878, N-(3-Chlorophenyl)-N-(4-(5-(difluoromethyl)-1,3,4-oxadiazol-2-yl)-2-fluorobenzyl)-4-ethylpiperazine-1-carboxamide]
17700 nM | 563 fold | 31 nM | – | O=C(N1CCS(=O)(=O)CC1)N(Cc1ccc(-c2nnc(C(F)F)o2)cn1)c1ccc(-c2cccnc2)cc1 [Compound 21824, N-((5-(5-(difluoromethyl)-1,3,4-oxadiazol-2-yl)pyridin-2-yl)methyl)-N-(4-(pyridin-3-yl)phenyl)thiomorpholine-4-carboxamide 1,1-dioxide]
47000 nM | 1542 fold | 31 nM | – | O=C(N1CCS(=O)(=O)CC1)N(Cc1ccc(-c2nnc(C(F)F)o2)cn1)c1ccc(F)cc1 [Compound 21829, N-((5-(5-(difluoromethyl)-1,3,4-oxadiazol-2-yl)pyridin-2-yl)methyl)-N-(4-fluorophenyl)thiomorpholine-4-carboxamide 1,1-dioxide]
15700 nM | 883 fold | 18 nM | – | O=C(N1CCS(=O)(=O)CC1)N(Cc1ccc(-c2nnc(C(F)F)o2)cc1F)c1cccc(Cl)c1 [Compound 21810, N-(3-chlorophenyl)-N-(4-(5-(difluoromethyl)-1,3,4-oxadiazol-2-yl)-2-fluorobenzyl)thiomorpholine-4-carboxamide 1,1-dioxide]
